On to `Clc1ccc(Nc2nc(-c3nccc4ccccc34)nc3ccccc23)cc1`, for which the melting point was 279 to 280 °C.

Compound `CC12CC(=O)C3C(CCC4CC(O)CCC43C)C1CCC2C(=O)O` (configuration not stated) returned a melting point of 265 to 270 °C.

In turn, `N#Cc1c(N)c2ccccc2[nH]c1=O` came in with a melting point of more than 250 °C.

Regarding `CC(=O)Nc1cc(C(=O)c2ccc(S(=O)(=O)CCO)c(NC(C)=O)c2)ccc1S(=O)(=O)CCO`, the melting point lay in the range of 189 to 192 °C.

The compound `Cc1cc(C(=O)NC/C=C\COc2ncccc2CN2CCCCC2)n[nH]1` displayed a melting point of 93 to 95 °C.

`Nc1ccc(OCc2ccc(Cl)nc2)cc1F` registered a melting point of 101 °C.

`OCCc1cc(-c2ccc(Cl)cc2)no1` gave a melting point of 65.5 to 67.5 °C.

`CCCc1ccnc2c(=O)[nH]c(-c3ccccc3OCC)nc12` had a melting point of 134 to 137 °C.

Turning to `CCC(CC)n1nnc2c(Nc3ccc(C(C)=O)cc3Br)nc(C)nc21`, the melting point was 153 to 154 °C.

As to `Nc1nc(-c2ccccc2Cl)nc(N2CCCCC2)n1`, the melting point was 184 to 186 °C.

For the compound `Cc1ccc(C=CC(=O)NCCCCN2CCN(C(c3ccccc3)c3ccccc3)CC2)cn1`, the melting point fell in the range of 129 to 131 °C.

`Cc1nn(-c2cccnc2)cc1[N+](=O)[O-]` registered a melting point of 122 to 124 °C.

`CCCCOc1cc(CCC(=O)O)ccc1-c1cccc(CN(C)C(=O)c2ccc(OC)cc2)c1`: the melting point lay in the range of 39 to 41 °C.

`O=C1c2ccccc2C(=O)N1CCc1ccc(CCC2CCCCC2)cc1` displayed a melting point of 135 to 138 °C.

In the case of `CC(C)NC(=S)N1CCc2[nH]cnc2C1c1ccccc1` (configuration not stated), the melting point stood at 198 °C.

On to `CN1Cc2c(C#CC(C)(C)OC(=O)C(C)(C)C)ncn2-c2cccc(Cl)c2C1=O`, for which the melting point is 132 to 133 °C.

For the compound `CC(C)(C)Oc1ccc(I)cc1`, the melting point was in the range of 40 to 41.5 °C.

For `CCOC(=O)c1cc2ccc(Cl)cc2n1C`, the melting point was in the range of 75.5 to 76.5 °C.

`CC(CC1(c2ccccc2)C=CCC=C1)N(C)C` (configuration not stated) yielded a melting point of 87 to 90 °C.

As to `O=C1NCN(c2ccccc2)C12CCN(CC(O)COc1ccc(F)cc1)CC2` (configuration not stated), the melting point was in the range of 152 to 154 °C.

In turn, `Cc1c(CCC2CC(O)CC(=O)O2)c2c(c(C)c1OC(=O)c1ccccc1)CC(C)(C)O2` (configuration not stated) yielded a melting point of 188 to 190 °C.

The compound `N#CC(Cl)CS(=O)(=O)c1ccc(OC(F)(F)C(Cl)Cl)cc1` (configuration not stated) displayed a melting point of 109 °C.

Compound `CCOC(=O)C(=O)c1ccc(OCC(=O)N2CCOCC2)cc1` displayed a melting point of 103 to 106 °C.

Consider `O=[N+]([O-])c1ccc(C(Cl)(Cl)Br)cc1`, for which the melting point is 51.3 to 52.9 °C.

With `CCCOc1ccc2nc(NC(=O)OCC)sc2c1`, the melting point is 175 to 177 °C.

The compound `Cc1cc(S(N)(=O)=O)sc1S(=O)(=O)CCO` gave a melting point of 144 to 148 °C.

The compound `Cc1oc(C=Cc2cccc(Cl)c2)nc1CC(=O)O` yielded a melting point of 214 to 215 °C.

`N#Cc1ccc(-c2nc(COc3ccc(CCCn4ccnc4)cc3)co2)cc1` returned a melting point of 98 to 99 °C.

With `CCCCc1nc(C(O)(CC)CC)c(C(=O)O)n1Cc1ccc(-c2ccccc2-c2nnn[nH]2)cc1`, the melting point fell in the range of 181 to 183 °C.

On to `Cc1c2c(cn1C)N(C)C(=O)C(OC(=O)c1ccccc1)N=C2c1ccccc1Cl` (configuration not stated), for which the melting point lay within 228 to 229 °C.

`O=C(O)c1cc(S)cc(C(=O)O)c1`: the melting point lay in the range of 240 to 246 °C.

In turn, `COCCOC(=O)c1cc(NC(=O)OCc2ccccc2)ccc1OCCOC` returned a melting point of 104 to 105 °C.

`c1ccc(-c2cc(OCC3CO3)no2)cc1` (configuration not stated) had a melting point of 98 to 99 °C.

With `CCC(=O)Cc1cc2cc(OCCNC[C@H](O)COc3ccccc3)ccc2o1`, the melting point was 99 to 100 °C.

The compound `COc1ccc(C(C)(O)Cc2ccncc2)cc1OC1CCCC1` (configuration not stated) registered a melting point of 99 to 101 °C.

Regarding `CC1CC(=O)NN=C1c1ccc2c(c1)N=CS2=O` (configuration not stated), the melting point fell in the range of 317 to 319 °C.

In turn, `CC(C)(Cc1ccc(Cl)cc1)C(O)(Cn1ccnc1)c1ccc(Cl)cc1` (configuration not stated) yielded a melting point of 174 °C.

The values above are taken from a melting point compilation (Tetko et al.; mined from patent text by program, amines drawn as free bases though some values may be those of a salt).
